As usually defined, the Ki is a measure of affinity in units of concentration, obtained from inhibition or displacement.

The values below come from patent US7674787B2, “Conformationally constrained Smac mimetics and the uses thereof” (The Regents of the University of Michigan, priority 2004, dated 2010).

For experiment [1], the target named is XIAP BIR3 (Homo sapiens, UniProt P98170). The experiment is described as follows: biochemical.
For experiment [2], the system named is PC-3 cells. The experiment is described as follows: Apoptosis by Annexin V-FITC staining in PC-3 cells. The experiment is classed as cell-based, human. The following applies: for potentiation of CDDP activity in inducing apoptosis: PC-3 cells or MDA-231 cells; for cells undergoing apoptosis as compared to control cells: 42 hours. An excerpt:
SH-97, a peptido-mimetic in which the side chain of alanine has been replaced with an ethyl group and the isoleucine has been replaced with a diphenylmethyl group, was used to test the basic premise. Of note, SH-97 still has two natural amino acids (valine and proline) and one natural peptide bond. […] The experiment used PC-3 cells which express high levels of XIAP and cIAP-1/2 proteins and cisplatin (CDDP) as the chemotherapeutic drug. CDDP is a DNA damaging agent and can effectively induce apoptosis in PC-3 cells and is also a clinically used chemotherapeutic drug for prostate cancer.
PC-3 cells were treated with CDDP, Smac peptides and mimetics alone or in combination for 42 hours and apoptosis was analyzed by Annexin V-FITC staining. […] Combination of 25 μM CDDP and 10 μM or 25 μM SH-97 induced 29.3%±1.9% and 35.8%±0.4% apoptosis over control cells, respectively (FIG. 18A).
Similar experiments were performed with SH-102 (Table 5). PC-3 cells in 6-well plates were treated with SH-102 and CDDP, alone or in combination, for 42 hours. Cells were collected and stained with Annexin V-FITC and propidium iodide. The fluorescence of Annexin V-FITC and propidium iodide of individual cells was analyzed by flow cytometry. […] Combination of 25 μM CDDP and 10 μM SH-102 induced 32% apoptosis over control cells (FIG. 19).
The same experiment was performed using TAXOTERE (docetaxel), another cancer chemotherapeutic drug. PC-3 cells in 6-well plates were treated with SH-102 and TAXOTERE, alone or in combination, for 42 hours. Cells were collected and stained with Annexin V-FITC and propidium iodide. The fluorescence of Annexin V-FITC and propidium iodide of individual cells was analyzed by flow cytometry. […] Combination of 10 μM TAXOTERE and 10 μM SH-102 induced about 18% apoptosis over control cells (FIG. 21).

The subject of experiment [3] is MDA-231 cells. In words: Apoptosis by Annexin V-FITC/propidium iodide in MDA-231 cells. The experiment is classed as cell-based, human. The following applies: for cells undergoing apoptosis as compared to control cells: 42 hours. The procedure:
Similar experiments were performed using the breast cancer cell line MDA-231. MDA-231 cells in 6-well plates were treated with SH-102 and CDDP, alone or in combination, for 42 hours. Cells were collected and stained with Annexin V-FITC and propidium iodide. The fluorescence of Annexin V-FITC and propidium iodide of individual cells was analyzed by flow cytometry. 25 μM and 50 μM CDDP induced about 25% and 42% of MDA-231 cells to undergo apoptosis as compared to control cells, respectively (FIG. 22). […] Combination of 25 and 50 μM CDDP and 10 μM SH-102 induced about 35% and 75% apoptosis over control cells, respectively (FIG. 22).

Experiment [4] deals with T1, human XIAP-BIR3 protein (residues 241-356) (Homo sapiens, UniProt P98170).
T1 construct: The human XIAP-BIR3 protein (residues 241-356) with a His tag
The experiment is described as follows: Fluorescence polarization saturation binding of labeled Smac peptides.
Description: A quantitative in vitro binding assay using fluorescence polarization was developed.

Experiment [5] concerns BT-549, MDA-MB-231 (subclone 2LMP), MDA-MB-231 (ATCC) and PC-3 cells. In words: Cell growth inhibition, WST-8, cancer cell lines. The experiment is classed as cell-based, human. The following applies: 5 days, WST-8; each of the cancer cell lines. The procedure:
To test the effect of [6.3.0] Smac mimetics in inhibition of cell growth in human cancer cells, compounds were administered to several different cancer cell lines. BT-549, MDA-MB-231 (subclone 2LMP), and MDA-MB-231 (ATCC) human breast cancer cells and PC-3 human prostate cancer cells were seeded in 96-well plates with increasing concentrations of the compounds. To assay for the selectivity of the compounds for cancer cells, normal prostate epithelial cells were also tested. The cells were then incubated at 37° C. with 5% CO2 for 5 days, followed by detection of cell viability with WST-8. Untreated cells were used as 100% growth. The compounds tested were SH-109, SH-122 and SH-123 (Table 6).
On the technique in general: Tetrazolium assays rely on reduction of a dye to a coloured formazan, in cell work by metabolically active cells.

For experiment [6], the system named is MDA-435, MDA-468, and T47D cells. In words: Cell growth inhibition, WST-8, breast cancer cell lines. The experiment is classed as cell-based, human. The conditions noted are these: 5 days, all three cell lines. The procedure: To test the effect of Smac mimetics by themselves in inhibition of cell growth in human cancer cells, SH-102 was administered to three different breast cancer cell lines. MDA-435, MDA-468, and T47D cells were seeded in 96-well plates with increasing concentrations of SH-102, Smac8, or Smac8-C. The cells were then incubated at 37° C. with 5% CO2 for 5 days, followed by detection of cell viability with WST-8 (10% Dojindo solution in IMEM with 10% FCS). OD values at 450 nm with reference at 650 nm were read approximately 3 hours later. Untreated cells were used as 100% growth. […]. […] (FIGS. 26A-26C).

Read-outs that look alike come from different tables or passages of the source. Where a SMILES comes first, the peptide text is derived from it. [ ]: non-standard residue; d: D form. The star is where a group is joined. 6FAM = O=C1OC2(c3ccc(O)cc3Oc3cc(O)ccc32)c2cc(C(=O)*)ccc21; Abu = CC[C@H](N)C(=O)O

XIAP BIR3, sequence (P98170 241-356): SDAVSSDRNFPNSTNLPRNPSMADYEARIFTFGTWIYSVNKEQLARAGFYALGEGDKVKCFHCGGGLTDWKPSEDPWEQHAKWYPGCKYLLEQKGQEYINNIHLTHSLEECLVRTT
T1 sequence (P98170 241-356): as above

On to `CC(C)C(NC(=O)[C@H](C)N)C(=O)C1CCC[C@H]1C(=O)NCc1ccccc1` (stereo partly drawn) [Compound 1], for which, in experiment [1], the Ki turned out to be 0.29 ± 0.06 µM. On the same count and under the same terms, under `C[C@H](N)C(=O)N[C@H]1CCC[C@H]2CC[C@@H](C(=O)NC(c3ccccc3)c3ccccc3)N2C1=O` [SH-104] stands 0.059 µM; under `Cc1cccc(CNC(=O)[C@@H]2CC[C@@H]3CC[C@H](NC(=O)[C@H](C)N)C(=O)N32)c1` [SH-77], 44.4 µM. `CC[C@H](N)C(=O)N[C@H]1CCCC[C@H]2CC[C@@H](C(=O)N[C@H](c3ccccc3)c3ccccc3C)N2C1=O` [SH-113] yielded an inhibitory constant (Ki) in experiment [1] of 0.14 µM.

In experiment [1], `C[C@H](N)C(=O)N[C@H]1CC[C@H]2CC[C@@H](C(=O)NCc3ccc(Br)cc3)N2C1=O` [SH-75] came in with a Ki of 19.6 µM. Same read-out and setting: the result for `C[C@H](N)C(=O)N[C@H]1CCC[C@H]2CC[C@@H](COC(c3ccccc3)c3ccccc3)N2C1=O` [SH-106] reads 2.01 µM; that for `C[C@H](N)C(=O)N[C@H]1CC[C@H]2CC[C@@H](C(=O)NCc3cccc(Br)c3)N2C1=O` [SH-74], 9.62 µM; that for `CC[C@H](N)C(=O)N[C@H]1CCCC[C@H]2CC[C@@H](C(=O)N[C@@H](c3ccccc3)c3ccc4ccccc4c3)N2C1=O` [SH-120], 0.023 µM. Still for that read-out and setting: under `C[C@H](N)C(=O)N[C@H]1CC[C@H]2CC[C@@H](C(=O)NCc3ccccc3Br)N2C1=O` [SH-73] stands 26.3 µM. Same read-out and setting: under `CC[C@H](N)C(=O)N[C@H]1CCCC[C@H]2CC[C@@H](C(=O)N[C@H](c3ccccc3)c3ccc(C)cc3)N2C1=O` [SH-115] stands 0.092 µM. As for `CC[C@H](N)C(=O)N[C@H]1CCCC[C@H]2CC[C@@H](C(=O)N[C@H](c3ccccc3)c3cccc(C)c3)N2C1=O` [SH-114], the affinity in experiment [1], expressed as Ki, was 0.027 µM. This Ki lies about 3.4-fold lower than the previous one.

The compound `CC[C@H](N)C(=O)N[C@H]1CC[C@H]2CC[C@@H](C(=O)N[C@@H](Cc3ccccc3)c3ccccc3)N2C1=O` [SH-100] displayed a Ki in experiment [1] of 8.51 µM. Compared with the last compound, the Ki is about 320-fold higher. Same read-out and setting: under `CC[C@H](N)CC[C@H]1CCC[C@H]2CC[C@@H](C(=O)NC(c3ccccc3)c3ccccc3)N2C1=O` [SH-107] stands greater than 40 µM. On the same count and under the same terms, the result for `C[C@H](N)C(=O)N[C@H]1CC[C@H]2CC[C@@H](C(=O)NCc3cccc(Cl)c3)N2C1=O` [SH-78] reads 12.2 µM; that for `C[C@H](N)C(=O)N[C@H]1CC[C@H]2CC[C@@H](C(=O)Nc3ccccc3)N2C1=O` [SH-69], greater than 200 µM. For `CCC[C@H](N)C(=O)N[C@H]1CC[C@H]2CC[C@@H](C(=O)NCc3ccccc3)N2C1=O` [SH-93], the “potentiation of CDDP activity in inducing apoptosis” value in experiment [2] is given as “unable to potentiate the activity of CDDP”. In addition, the “effect of combination with CDDP on apoptosis” value in experiment [3] (25 and 50 μM CDDP + 25 μM SH-93, 42 hours) was “no significant effect”. This compound showed a Ki in experiment [1] (Ki (μM), Table 5) greater than 100 µM. For `C[C@H](N)C(=O)N[C@H]1CC[C@H]2CC[C@@H](C(=O)N[C@@H](C)c3ccccc3)N2C1=O` [SH-71], the inhibitory constant (Ki) in experiment [1] was greater than 200 µM. Regarding `CC[C@H](N)C(=O)N[C@@H](CCCNC(=N)N)C(=O)N1CCC[C@H]1C(=O)N[C@@H](Cc1ccccc1)C(=O)N[C@@H](CCCCNC(=O)c1ccc2c(c1)C1(OC2=O)c2ccc(O)cc2Oc2cc(O)ccc21)C(=O)O` [SM5F, AbuRPFK-FAM] (H-[Abu]RPFK(6FAM)-OH; N-terminus and C-terminus assumed), the “ratio of the Kd values between labeled SM5F and S9F” value in experiment [4] (SM5F versus S9F) was 7.2 fold. For the same compound, the “binding affinity higher than natural Smac peptide S9F” value in experiment [4] (relative to S9F) is recorded as “about 10 times”.

In turn, `C[C@H](N)C(=O)N[C@H]1CC[C@H]2CC[C@@H](C(=O)NCCc3c[nH]c4ccccc34)N2C1=O` [SH-79] returned a Ki in experiment [1] greater than 200 µM.

On to `CC[C@H](N)C(=O)N[C@H]1CCCC[C@H]2CC[C@@H](C(=O)NC(c3ccccc3)c3ccccc3)N2C1=O` [SH-109], for which the “cell growth inhibition (in words)” value in experiment [5] is listed as “inhibited the cell growth”. Moreover, affinity in experiment [1] was put at a Ki of 0.028 µM. The compound `C[C@H](N)C(=O)N[C@H]1CC[C@H]2CC[C@@H](C(=O)N[C@H](C)c3ccccc3)N2C1=O` [SH-72] registered a Ki in experiment [1] of 8.88 µM. On to `[NH2][Pt]([NH2])([Cl])[Cl]` [CDDP, cisplatin, reference compound], for which the “cells undergoing apoptosis as compared to control cells” value is reported as roughly 25% in experiment [2] (50 μM CDDP alone), “about 25%” in experiment [3] (25 μM CDDP alone) and roughly 42% in experiment [3] (50 μM CDDP alone). In experiment [1], `CC[C@H](N)C(=O)N[C@H]1CCCC[C@H]2CC[C@@H](C(=O)N[C@@H](c3ccccc3)c3ccccc3C)N2C1=O` [SH-116] returned an inhibition constant Ki of 0.019 µM. For the compound `CC(=O)O[C@@]12CO[C@@H]1C[C@H](O)[C@@]1(C)C(=O)[C@H](O)C3=C(C)[C@@H](OC(=O)[C@H](O)[C@@H](NC(=O)OC(C)(C)C)c4ccccc4)C[C@@](O)([C@@H](OC(=O)c4ccccc4)[C@H]21)C3(C)C` [TAXOTERE, docetaxel, reference compound], the “cells undergoing apoptosis as compared to control cells” value was “about 5%” in experiment [2] (10 μM TAXOTERE alone) and roughly 8% in experiment [2] (20 μM TAXOTERE alone). For the compound `C[C@H](N)C(=O)N[C@H]1CC[C@H]2CC[C@@H](C(=O)NCc3ccoc3)N2C1=O` [SH-84], in experiment [1], affinity was put at a Ki of 9.98 µM. `C[C@H](N)C(=O)N[C@H]1CC[C@H]2CC[C@@H](C(=O)N[C@H](Cc3ccccc3)C(N)=O)N2C1=O` [SH-92]: the Ki in experiment [1] was 9.98 µM. Still for that read-out and setting: the result for `CC[C@H](N)C(=O)N[C@H]1CCCC[C@H]2CC[C@@H](C(=O)N[C@H](c3ccccc3)c3ccc4ccccc4c3)N2C1=O` [SH-119] reads 0.12 µM. Still for that read-out and setting: the result for `CC[C@@H](C(=O)N[C@H]1CCCC[C@H]2CC[C@@H](C(=O)NC(c3ccccc3)c3ccccc3)N2C1=O)N(C)C` [SH-125] reads 0.03 µM. Still for that read-out and setting: the result for `C[C@H](N)C(=O)N[C@H]1CC[C@H]2CC[C@@H](C(=O)NCc3ccsc3)N2C1=O` [SH-85] reads 6.28 µM.

On to `C[C@H](O)C(=O)N[C@H]1CCCC[C@H]2CC[C@@H](C(=O)NC(c3ccccc3)c3ccccc3)N2C1=O` [SH-123], for which, in experiment [5], the “cell growth inhibition (in words)” value is “inhibited the cell growth”. Besides, the Ki in experiment [1] is greater than 10 µM. `CC[C@H](N)C(=O)N[C@H]1CCCC[C@H]2CC[C@@H](C(=O)N[C@@H](c3ccccc3)c3cccc(C)c3)N2C1=O` [SH-117]: in experiment [1], the affinity corresponds to a Ki of 0.012 µM. With “AVPIAQKS [Smac-8, Smac peptide without a carrier peptide, negative control, reference compound]”, the “potentiation of CDDP activity in inducing apoptosis” value in experiment [2] was “unable to potentiate the activity of CDDP”. In addition, in experiment [6], the “cell growth inhibition (in words)” value is “essentially ineffective”. For `CC[C@H](N)C(=O)N[C@H]1CCC[C@H]2CC[C@@H](C(=O)NCc3ccccc3)N2C1=O` [Compound 33], the inhibitory constant (Ki) in experiment [1] stood at 0.06 µM; in experiment [1] (Ki) it was 0.06 µM; in experiment [1] (Ki (μM), Table 4, [5.3.0] bicyclic lactam system), 0.06 ± 0.015 µM. With `CC[C@H](N)C(=O)N[C@H]1CCCC[C@H]2CC[C@@H](C(=O)N[C@@H](c3ccccc3)c3ccc(C)cc3)N2C1=O` [SH-118], the Ki in experiment [1] was 0.016 µM. That is a double-digit nanomolar value.
